Columns and labels:
[1] = tested on: IL-10; test: IL-10 expression in LPS-treated macrophages (ELISA); type: cell-based, C57BL/6 mice; details: macrophages treated with lactic acid bacteria and LPS for 24 hours
In short: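 Peritoneal macrophages were elicited in male C57BL/6 mice (6 weeks) by i.p. 4% thioglycolate and harvested 96 h later. Cells at 0.5×10^6/well were treated with lactic acid bacteria plus LPS for 24 h. Cytokines in the supernatant were quantified by ELISA.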

[2] = tested on: Neuropeptide Y (NPY); test: Neuropeptide Y (NPY) expression in PC12 phaeochromocytoma cells; type: cell-based; details: LPS 200 ng/ml; lactic acid bacteria 1×10^4 CFU/ml; 24 hr
Description: PC12 cells obtained from the Korean Cell Line Bank were cultured in DMEM medium supplemented with 10% FBS and 1% antibiotics, and dispensed at 1×10^6 cells per well in a 12-well plate. Then, LPS (200 ng/ml) was added to each well along with lactic acid bacteria (1×10^4 CFU/ml) and incubated for 24 hr. The cells and supernatants were collected, sonicated and centrifuged, and the amount of NPY in the supernatant was measured by ELISA kit.

[3] = tested on: Clostridium difficile; test: Clostridium difficile proliferation in gut microbiota (PCR); type: cell-based; details: for Gut microbiota Inhibition of difficile bacteria proliferation: human feces culture, lactic acid bacteria 1×10^6 CFU/mL, anaerobic 24 hr
In short: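 Human fecal supernatant, diluted 10,000-fold in GAM, co-cultured anaerobically 24 h with lactic acid bacteria (1×10^6 CFU/mL). C. difficile quantified by PCR on pellet DNA (95 °C 30 s; 42 cycles 95 °C 5 s/72 °C 30 s); supernatant LPS measured by ELISA.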

[4] = tested on: animals with intestinal and brain diseases induced by TNBS; test: Animals with intestinal and brain diseases induced by TNBS: cognitive improvement, hippocampus; type: in vivo, C57BL/6 male mice; details: for Cognitive function Exploration (%) / Cognitive function Spont. alteration (%) / Concentration in the hippocampus IFN-γ / Concentration in the hippocampus IL-10 / Concentration in the hippocampus TNF-α: TNBS-treated mice, 1×10^9 CFU/mouse or sulfasalazine 50 mg/kg orally once a day for 5 days; for cognitive impairment caused by TNBS: result in words, summary of Table 18
Description: Indicators of this supernatant were measured using an ELISA kit (Ebioscience). […] The animal's movements were recorded, and reported as arm entries when the animal entered the arm with its hind paw, and the animal's movement was represented by an alternation, which was defined as one alternation when the animal passed through the three arms in succession. The amount of spontaneous alternation behavior was expressed as a percentage between the actual number of alternations and the maximum possible number of alternations (i.e., the total number of […] minus 2). The experiment was conducted in a box (40×40×40 cm) made so that the outside could not be seen from the inside. Two objects (A, A′) of the same shape and size were fixedly disposed in a box and the mouse was relocated to start from the center of the box. Then, the number of times the mouse made contact with the two objects was recorded for 10 minutes. After 24 hours, one of the two objects was replaced with a new object (A, B). Then, one original object and one new object were prepared, and the animal's exploration time was measured. C57BL/6 male mice (5 weeks old, 19-21 g) were divided (6 mice in each group) and acclimatized to the laboratory for 1 week. […] Meanwhile, the normal group was orally administered with 0.1 ml of physiological saline. From the next day, the mice were orally administered once a day for 5 days with lactic acid bacteria as a test sample suspended in physiological saline solution at a concentration of 1×10^9 CFU per mouse (NK210 alone (LR): 1×10^9 CFU/mouse, NK219 alone (BL): 1×10^9 CFU/mouse, NK209 alone (LL): 1×10^9 CFU/mouse, combined (MX, 210+219): NK210, 8×10^8 CFU/mouse and NK219, 2×10^8 CFU/mouse, combined (MX, 209+219) NK209, 8×10^8 CFU/mouse and NK219, 2×10^8 CFU/mouse, LR+BL+LL: NK210, 4×10^8 CFU/mouse, NK219, 2×10^8 CFU/mouse, and NK209, 4×10^8 CFU/mouse, heat treated (H—), respectively: 1×10^9 CFU/mouse). […] The day following the conclusion of sample administration, the experimental animals were sacrificed, and samples from the brain hippocampus, colon, and spleen were collected. In the Hippocampus, inflammatory indicators, such as TNF-α and IL-10, were measured using ELISA. In the colon, intestinal length and inflammatory indicators, such as TNF-α and IL-10, were measured. In the spleen, Th1 cells and Treg cells were measured by FACS (Fluorescence-Activated Cell Sorting).

Substance	Macrophage Induction of IL-10 expression [1]	PC12 cell Induction of NPY expression [2]	Gut microbiota Inhibition of difficile bacteria proliferation [3]	Cognitive function Exploration (%) [4]	Cognitive function Spont. alteration (%) [4]	Concentration in the hippocampus IFN-γ [4]	Concentration in the hippocampus IL-10 [4]	Concentration in the hippocampus TNF-α [4]	cognitive impairment caused by TNBS [4]	inhibiting the proliferation of intestinal Clostridium difficile ([3]; result in words, summary of Table 2)
Bifidobacterium longum NK219	+++ (very strongly (+++; >90%))	++ (strongly (++; >60-90%))	+++ (very strongly (+++; >90%))	75.37%	65.32%	25.02 pg/mg	40.26 pg/mg	11.93 pg/mg	improved	–
Lactobacillus rhamnosus NK210	+++ (very strongly (+++; >90%))	+++ (very strongly (+++; >90%))	+++ (very strongly (+++; >90%))	74.25%	62.45%	26.28 pg/mg	38.64 pg/mg	12.14 pg/mg	improved	–
Lactococcus lactis NK209	+ (weakly (+; >20-60%))	+ (weakly (+; >20-60%))	+++ (very strongly (+++; >90%))	70.20%	58.8%	30.81 pg/mg	35.53 pg/mg	13.54 pg/mg	–	significant effect

From patent US20250009819A1, “NOVEL PROBIOTICS AND USE THEREOF” (PBLBIOLAB CO., LTD., priority 2021, published 2025)
